Measured values: US9302999B2, “Substituted triazoles as herbicides” (E. I. DU PONT DE NEMOURS AND COMPANY, priority 2012, dated 2016)

Tests used:
Type in all cases: in vivo
[1] = tested on: canarygrass (Phalaris minor); assay: Test D pre-/postemergence: canarygrass
Source text: Seeds of plant species selected from bluegrass (annual bluegrass, Poa annua), blackgrass (Alopecurus myosuroides), canarygrass (Phalaris minor), chickweed (common chickweed, Stellaria media), galium (catchweed bedstraw, Galium aparine), bromegrass, downy (downy bromegrass, Bromus tectorum), field poppy (Papaver rhoeas), field violet (Viola arvensis), foxtail, green (green foxtail, Setaria viridis), deadnettle (henbit deadnettle, Lamium amplexicaule), ryegrass, Italian (Italian ryegrass, Lolium multiflorum), kochia (Kochia scoparia), lambsquarters (Chenopodium album), oilseed rape (Brassica napus), pigweed (Amaranthus retroflexus), Russian thistle (Salsola iberica), chamomile (scentless chamomile, Matricaria inodora), speedwell (bird's-eye speedwell, Veronica persica), barley, spring (spring barley, Hordeum vulgare), wheat, spring (spring wheat, Triticum aestivum), buckwheat, wild (wild buckwheat, Polygonum convolvulus), mustard, wild (wild mustard, Sinapis arvensis), oat, wild (wild oat, Avena fatua), radish, wild (wild radish, Raphanus raphanistrum), windgrass (Apera spica-venti), barley, winter (winter barley, Hordeum vulgare), and wheat, winter (winter wheat, Triticum aestivum) were planted into a silt loam soil and treated preemergence with test chemicals formulated in a non-phytotoxic solvent mixture which included a surfactant. At the same time, these same crop and weed species were planted in pots containing the planting medium comprising spaghnum peat moss, vermiculite, wetting agent and starter nutrients and treated with postemergence applications of the test chemicals formulated in the same manner. Plants ranged in height from 2 to 18 cm (1- to 4-leaf stage).
Treated plants and controls were maintained in a controlled growth environment for 14 to 21 days after which time all species were compared to controls and visually evaluated. Plant response ratings, summarized in Table D, are based on a scale of 0 to 100 where 0 is no effect and 100 is complete control. A dash (-) response means no test result.

[2] = tested on: ryegrass, Italian (Italian ryegrass, Lolium multiflorum); assay: Test D pre-/postemergence: ryegrass, Italian
In short: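 Species were sown in silt loam and sprayed preemergence, or grown in peat/vermiculite medium and sprayed postemergence at the 1- to 4-leaf stage (2–18 cm), with compounds in a surfactant-containing solvent. Injury was visually rated against untreated controls after 14–21 days, on a 0 (no effect) to 100 (complete control) scale.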

[3] = tested on: foxtail, giant (giant foxtail, Setaria faberii); assay: Test E pre-/postemergence: foxtail, giant; settings: Preemergence, scale 0 to 100
Source text: (§1) Seeds of plant species selected from corn (Zea mays), soybean (Glycine max), velvetleaf (Abutilon theophrasti), lambsquarters (Chenopodium album), poinsettia, wild (wild poinsettia, Euphorbia heterophylla), pigweed, palmer (palmer pigweed, Amaranthus palmeri), waterhemp (common waterhemp, Amaranthus rudis), smartweed (ladysthumb smartweed, Polygonum persicaria), surinam grass (Brachiaria decumbens), crabgrass, large (large crabgrass, Digitaria sanguinalis), crabgrass, Brazil (Brazilian crabgrass, Digitaria horizontalis), panicum, fall (fall panicum, Panicum dichotomiflorum), foxtail, giant (giant foxtail, Setaria faberii), foxtail, green (green foxtail, Setaria viridis), goosegrass (Eleusine indica), johnsongrass (Sorghum halepense), ragweed (common ragweed, Ambrosia elation), barnyardgrass (Echinochloa crus-galli), sandbur (southern sandbur, Cenchrus echinatus), arrowleaf sida (Sida rhombifolia), ryegrass, Italian (Italian ryegrass, Lolium multiflorum), dayflower, (VA) (Virginia dayflower, Commelina virginica), field bindweed (Convolvulus arvensis), cocklebur (common cocklebur, Xanthium strumarium), morningglory (Ipomoea coccinea), nightshade (eastern black nightshade, Solanum ptycanthum), kochia (Kochia scoparia), nutsedge, yellow (yellow nutsedge, Cyperus esculentus) and beggarticks (hairy beggarticks, Bidens pilosa) were planted into a silt loam soil and treated preemergence with test chemicals formulated in a non-phytotoxic solvent mixture which included a surfactant. At the same time, plants selected from these crop and weed species were planted in pots containing a growing medium comprising spaghnum peat moss, vermiculite, wetting agent and starter nutrients and treated with postemergence applications of some of the test chemicals formulated in the same manner. Plants ranged in height from 2 to 18 cm for postemergence treatments (1- to 4-leaf stage).
(§2) Treated plants and controls were maintained in a greenhouse for 14 to 21 days, after which time all species were compared to controls and visually evaluated. Plant response ratings, summarized in Table E, are based on a scale of 0 to 100 where 0 is no effect and 100 is complete control. A dash (-) response means no test result.

[4] = tested on: barnyardgrass (Echinochloa crus-galli); assay: Test E pre-/postemergence: barnyardgrass; settings: Preemergence, scale 0 to 100
Source text: as §1, §2

[5] = tested on: foxtail, green (green foxtail Setaria viridis); assay: Test F pre-/postemergence: foxtail, green; settings: Preemergence
In short: (§3)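 Preemergence treatment of seeds sown in silt loam soil, and postemergence treatment of plants 2–18 cm tall (1- to 4-leaf stage), with compounds in non-phytotoxic solvent plus surfactant. Greenhouse 14–21 days, then visual rating versus controls on 0–100 scale (100 = complete control).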

[6] = tested on: sandbur (southern sandbur, Cenchrus echinatus); assay: Test F pre-/postemergence: sandbur
In short: as §3

[7] = Postemergence, 31 g ai/ha, scale 0 to 100 (0 no effect, 100 complete control)
[8] = Postemergence, 62 g ai/ha, scale 0 to 100 (0 no effect, 100 complete control)
[9] = Postemergence, 125 g ai/ha, scale 0 to 100, 0 no effect, 100 complete control
[10] = Postemergence, 250 g ai/ha, scale 0 to 100 (0 no effect, 100 complete control)
[11] = Postemergence, 16 g ai/ha, scale 0 to 100
[12] = Preemergence, 16 g ai/ha, scale 0 to 100, 0 no effect, 100 complete control
[13] = Preemergence, 31 g ai/ha, scale 0 to 100, 0 no effect, 100 complete control
[14] = Preemergence, 62 g ai/ha, scale 0 to 100
[15] = Preemergence, 125 g ai/ha, scale 0 to 100
[16] = Preemergence, 250 g ai/ha, scale 0 to 100
[17] = 16 g ai/ha, scale 0 to 100, 0 no effect, 100 complete control
[18] = 31 g ai/ha, scale 0 to 100, 0 no effect, 100 complete control

| Structure (SMILES) | Plant response rating: Canarygrass [1, 7] | Plant response rating: Canarygrass [1, 8] | Plant response rating: Canarygrass [1, 9] | Plant response rating, Canarygrass [1, 11] | Plant response rating: Ryegrass, Italian [2, 7] | Plant response rating: Ryegrass, Italian [2, 8] | Plant response rating: Ryegrass, Italian [2, 9] | Plant response rating, Ryegrass, Italian [2, 11] | Plant response rating, Canarygrass [1, 12] | Plant response rating, Canarygrass [1, 13] | Plant response rating, Canarygrass [1, 14] | Plant response rating, Canarygrass [1, 15] | Plant response rating, Ryegrass, Italian [2, 12] | Plant response rating, Ryegrass, Italian [2, 13] | Plant response rating, Ryegrass, Italian [2, 14] | Plant response rating, Ryegrass, Italian [2, 15] | Plant response rating, Foxtail, Green ([5]; 62 g ai/ha, scale 0 to 100) | Plant response rating, Foxtail, Green ([5]; 125 g ai/ha, scale 0 to 100) | Plant response rating, Foxtail, Green ([5]; 250 g ai/ha, scale 0 to 100) | Plant response rating, Sandbur [6, 15] | also measured |
| --- | --- | --- | --- | --- | --- | --- | --- | --- | --- | --- | --- | --- | --- | --- | --- | --- | --- | --- | --- | --- | --- |
| Cc1nn(-c2ccc(C(F)(F)F)cn2)nc1Oc1ccnc(C(F)(F)F)c1 [Compound 23] | 15 | 20 | 25 | 10 | 10 | 10 | 10 | 5 | – | – | – | – | – | – | – | – | – | – | – | – | Plant response rating: Canarygrass [1, 10]: 30; Plant response rating: Ryegrass, Italian [2, 10]: 15; Plant response rating: Foxtail, Giant ([3]; 16 g ai/ha): 0; Plant response rating: Foxtail, Giant ([3]; 31 g ai/ha): 5; Plant response rating: Foxtail, Giant ([3]; 62 g ai/ha): 5; Plant response rating: Foxtail, Giant ([3]; 125 g ai/ha): 100; Plant response rating: Foxtail, Giant ([3]; 250 g ai/ha): 100; Plant response rating: Barnyardgrass ([4]; 16 g ai/ha): 0; Plant response rating: Barnyardgrass ([4]; 31 g ai/ha): 0; Plant response rating: Barnyardgrass ([4]; 62 g ai/ha): 0; Plant response rating: Barnyardgrass ([4]; 125 g ai/ha): 20; Plant response rating: Barnyardgrass ([4]; 250 g ai/ha): 20 |
| CCc1nn(-c2ccc(C(F)(F)F)cc2)nc1Cc1ccnc(C(F)(F)F)c1 [Compound 155] | 70 | 70 | 85 | 20 | 15 | 25 | 60 | 5 | 10 | 70 | 100 | 100 | 0 | 0 | 10 | 65 | 100 | 100 | 100 | 100 | Plant response rating, Sandbur [6, 16]: 100 |
| CCOc1nn(-c2ccc(F)cc2)nc1Cc1ccnc(C(F)(F)F)c1 [Compound 196, 4-[[5-ethoxy-2-(4-fluorophenyl)-2H-1,2,3-triazol-4-yl]methyl]-2-(trifluoromethyl)pyridine] | 70 | 80 | 85 | 30 | 15 | 30 | 75 | 5 | 40 | 100 | 100 | 100 | 5 | 10 | 60 | 100 | 100 | 100 | – | 98 | Plant response rating, Foxtail, Green ([5]; 8 g ai/ha, scale 0 to 100, 0 no effect, 100 complete control): 75; Plant response rating, Foxtail, Green [5, 17]: 75; Plant response rating, Foxtail, Green [5, 18]: 85; Plant response rating, Sandbur ([6]; Postemergence, 8 g ai/ha, scale 0 to 100): 10; Plant response rating, Sandbur [6, 11]: 20; Plant response rating, Sandbur ([6]; Postemergence, 31 g ai/ha, scale 0 to 100): 20; Plant response rating, Sandbur ([6]; Postemergence, 62 g ai/ha, scale 0 to 100): 30; Plant response rating, Sandbur ([6]; Postemergence, 125 g ai/ha, scale 0 to 100): 50; Plant response rating, Sandbur ([6]; Preemergence, 8 g ai/ha, scale 0 to 100, 0 no effect, 100 complete control): 5; Plant response rating, Sandbur [6, 12]: 5; Plant response rating, Sandbur [6, 13]: 5 |
| Cc1nn(-c2ccc(C(F)(F)F)c(F)c2)nc1Oc1ccnc(C(F)(F)F)c1 [Compound 148] | 30 | 20 | 70 | 10 | 15 | 20 | 20 | 5 | 0 | 50 | 60 | 100 | 0 | 5 | 5 | 35 | 100 | 100 | 100 | 70 | Plant response rating, Foxtail, Green [5, 17]: 35; Plant response rating, Foxtail, Green [5, 18]: 100; Plant response rating, Sandbur [6, 12]: 0; Plant response rating, Sandbur [6, 13]: 0; Plant response rating, Sandbur [6, 16]: 100 |
